Experimental data: PubChem BioAssay (NCI)
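Test compounds were applied to cells in 96-well plates for 48 hours at 5 doses. GI50 is the concentration that inhibits growth by half. Definition used: TGI = concentration required for complete inhibition of growth.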

Legend:
Assay in all cases: NCI anticancer screen, dose series, 48 h
[1] = system: HS 578T breast
[2] = system: MALME-3M melanoma
[3] = system: NCI-H23 lung
[4] = system: SR leukemia
[5] = system: UACC-257 melanoma
[6] = system: SNB-19 CNS
[7] = system: SW-620 colon
[8] = system: UACC-62 melanoma
[9] = system: MDA-MB-435
[10] = system: A498 renal
[11] = system: RPMI-8226 leukemia
[12] = system: SNB-75 CNS
[13] = system: SK-MEL-28 melanoma
[14] = system: NCI-H226 lung
[15] = system: COLO 205 colon
[16] = system: NCI/ADR-RES ovarian
[17] = system: OVCAR-4 ovarian
[18] = system: T-47D breast
[19] = system: SK-MEL-5 melanoma
[20] = system: ACHN renal
[21] = system: RXF 393 renal
[22] = system: NCI-H460 lung
[23] = system: OVCAR-8 ovarian
[24] = system: TK-10 renal
[25] = system: CCRF-CEM leukemia
[26] = system: HCT-116 colon
[27] = system: OVCAR-3 ovarian
[28] = system: DU-145 prostate
[29] = system: HCC-2998 colon
[30] = system: HT29 colon
[31] = system: SK-MEL-2 melanoma
[32] = system: SF-268 CNS
[33] = system: MOLT-4 leukemia
[34] = system: HL-60(TB) leukemia
[35] = system: PC-3 prostate
[36] = system: NCI-H522 lung
[37] = system: HOP-92 NSCLC
[38] = system: 786-0 renal
[39] = system: MCF7 breast
[40] = system: LOX IMVI melanoma
[41] = system: K-562 leukemia
[42] = system: SK-OV-3 ovarian
[43] = system: HCT-15 colon
[44] = system: SN12C renal
[45] = system: HOP-62 NSCLC
[46] = system: KM12 colon
[47] = system: SF-539 CNS
[48] = system: OVCAR-5 ovarian
[49] = system: IGROV1 ovarian
[50] = system: SF-295 CNS
[51] = system: MDA-MB-231 breast
[52] = system: BT-549 breast
[53] = system: UO-31 renal
[54] = system: CAKI-1 renal
[55] = system: U251 CNS
[56] = system: A549 NSCLC
[57] = system: M14 melanoma
[58] = system: EKVX NSCLC

## OC(CNCC1CCCO1)Cn1c2ccc(Cl)cc2c2cc(Cl)ccc21 (stereo not drawn)
[1]
  GI50: 2140 nM
  TGI: 6.93 µM
[2]
  GI50: 1930 nM
  TGI: 3.94 µM
[3]
  GI50: 1920 nM
  TGI: 3.61 µM
[4]
  GI50: 2050 nM
  TGI: 5.5 µM
[5]
  GI50: 1640 nM
  TGI: 3.13 µM
[6]
  GI50: 1880 nM
  TGI: 3.96 µM
[7]
  GI50: 1700 nM
  TGI: 3.38 µM
[8]
  GI50: 1780 nM
  TGI: 3.46 µM
[9]
  GI50: 1660 nM
  TGI: 3.02 µM
[10]
  GI50: 1060 nM
  TGI: 8.83 µM
[11]
  GI50: 2690 nM
  TGI: 6.2 µM
[12]
  GI50: 1390 nM
  TGI: 2.87 µM
[13]
  GI50: 1670 nM
  TGI: 3.15 µM
[14]
  GI50: 2420 nM
  TGI: 8.1 µM
[15]
  GI50: 1920 nM
  TGI: 3.61 µM
[16]
  GI50: 1930 nM
  TGI: 3.82 µM
[17]
  GI50: 1.75 µM
  TGI: 4.32 µM
[18]
  GI50: 1910 nM
  TGI: 3.89 µM
[19]
  GI50: 1770 nM
  TGI: 3.26 µM
[20]
  GI50: 1680 nM
  TGI: 3.16 µM
[21]
  GI50: 1620 nM
  TGI: 3.51 µM
[22]
  GI50: 1950 nM
  TGI: 3.75 µM
[23]
  GI50: 2020 nM
  TGI: 4.22 µM
[24]
  GI50: 2.05 µM
  TGI: 3.75 µM
[25]
  GI50: 2280 nM
  TGI: 4.99 µM
[26]
  GI50: 1730 nM
  TGI: 3120 nM
[27]
  GI50: 1820 nM
  TGI: 3.28 µM
[28]
  GI50: 1830 nM
  TGI: 3.37 µM
[29]
  GI50: 1710 nM
  TGI: 3.15 µM
[30]
  GI50: 1940 nM
  TGI: 3.72 µM
[31]
  GI50: 2290 nM
  TGI: 4.28 µM
[32]
  GI50: 1870 nM
  TGI: 3.77 µM
[33]
  GI50: 2090 nM
  TGI: 4.65 µM
[34]
  GI50: 2300 nM
  TGI: 5.51 µM
[35]
  GI50: 1930 nM
  TGI: 3.74 µM
[36]
  GI50: 1890 nM
  TGI: 3.6 µM
[37]
  GI50: 2150 nM
  TGI: 6.24 µM
[38]
  GI50: 1590 nM
  TGI: 3.08 µM
[39]
  GI50: 1720 nM
  TGI: 3.25 µM
[40]
  GI50: 1650 nM
  TGI: 3000 nM
[41]
  GI50: 2150 nM
  TGI: 4.76 µM
[42]
  GI50: 2.08 µM
  TGI: 4.19 µM
[43]
  GI50: 1670 nM
  TGI: 3.26 µM
[44]
  GI50: 2060 nM
  TGI: 4.58 µM
[45]
  GI50: 1720 nM
  TGI: 3.39 µM
[46]
  GI50: 1810 nM
  TGI: 3.27 µM
[47]
  GI50: 1660 nM
  TGI: 3.13 µM
[48]
  GI50: 1890 nM
  TGI: 3.61 µM
[49]
  GI50: 2050 nM
  TGI: 4.03 µM
[50]
  GI50: 1780 nM
  TGI: 3.57 µM
[51]
  GI50: 1750 nM
  TGI: 3.5 µM
[52]
  GI50: 5.98 µM
  TGI: 27.1 µM
[53]
  GI50: 1610 nM
  TGI: 3150 nM
[54]
  GI50: 1540 nM
  TGI: 3 µM
[55]
  GI50: 1650 nM
  TGI: 3.05 µM
[56]
  GI50: 1870 nM
  TGI: 3.69 µM

## COc1cc(/C=C/C(=O)c2c(C)nc3ccccc3c2/C=C/c2ccc(C)cc2)cc(OC)c1OC
[1]
  GI50: 3260 nM
  TGI: > 100 µM
[2]
  GI50: 1850 nM
  TGI: 3.52 µM
[3]
  GI50: 1720 nM
  TGI: 3.8 µM
[4]
  GI50: 2000 nM
  TGI: 9.11 µM
[5]
  GI50: 2710 nM
  TGI: 7.32 µM
[6]
  GI50: 1690 nM
  TGI: 3.14 µM
[7]
  GI50: 3090 nM
  TGI: > 100 µM
[8]
  GI50: 1600 nM
  TGI: 3.08 µM
[9]
  GI50: 1990 nM
  TGI: 4.55 µM
[10]
  GI50: 2000 nM
  TGI: 4.87 µM
[11]
  GI50: 2560 nM
  TGI: 7.87 µM
[12]
  GI50: 1470 nM
  TGI: 4.82 µM
[13]
  GI50: 2020 nM
  TGI: 3.91 µM
[14]
  GI50: 2180 nM
  TGI: 6.11 µM
[15]
  GI50: 2530 nM
  TGI: 6.09 µM
[16]
  GI50: 2480 nM
  TGI: 7.78 µM
[17]
  GI50: 5.62 µM
  TGI: 52.9 µM
[18]
  GI50: 2490 nM
  TGI: > 100 µM
[19]
  GI50: 1750 nM
  TGI: 3.24 µM
[20]
  GI50: 1990 nM
  TGI: 4.6 µM
[21]
  GI50: 1630 nM
  TGI: 3.13 µM
[22]
  GI50: 2060 nM
  TGI: 5.09 µM
[57]
  GI50: 2180 nM
  TGI: 5.03 µM
[23]
  GI50: 3250 nM
  TGI: > 100 µM
[24]
  GI50: 5.37 µM
  TGI: 67 µM
[25]
  GI50: 2830 nM
  TGI: > 100 µM
[26]
  GI50: 1360 nM
  TGI: 2820 nM
[27]
  GI50: 1760 nM
  TGI: 3.23 µM
[28]
  GI50: 1860 nM
  TGI: 3.66 µM
[29]
  GI50: 1730 nM
  TGI: 3.26 µM
[30]
  GI50: 2810 nM
  TGI: 14 µM
[31]
  GI50: 2110 nM
  TGI: 5.05 µM
[32]
  GI50: 2210 nM
  TGI: 6.42 µM
[33]
  GI50: 2560 nM
  TGI: > 100 µM
[34]
  GI50: 2220 nM
  TGI: 6.29 µM
[35]
  GI50: 2590 nM
  TGI: 8.76 µM
[36]
  GI50: 1830 nM
  TGI: 5.56 µM
[37]
  GI50: 1610 nM
  TGI: 3.9 µM
[38]
  GI50: 1950 nM
  TGI: 3.81 µM
[39]
  GI50: 1390 nM
  TGI: 3.51 µM
[40]
  GI50: 1450 nM
  TGI: 2760 nM
[41]
  GI50: 2750 nM
  TGI: > 100 µM
[42]
  GI50: 11 µM
  TGI: > 100 µM
[43]
  GI50: 1530 nM
  TGI: 3.62 µM
[44]
  GI50: 1850 nM
  TGI: 4.31 µM
[45]
  GI50: 3100 nM
  TGI: 9.94 µM
[46]
  GI50: 1870 nM
  TGI: 3.6 µM
[47]
  GI50: 1920 nM
  TGI: 3.69 µM
[48]
  GI50: 2180 nM
  TGI: 5.38 µM
[49]
  GI50: 1720 nM
  TGI: 3.72 µM
[58]
  GI50: 2320 nM
  TGI: 6.32 µM
[50]
  GI50: 2190 nM
  TGI: 5.4 µM
[51]
  GI50: 2140 nM
  TGI: 5.23 µM
[52]
  GI50: 2.06 µM
  TGI: 4.57 µM
[53]
  GI50: 1370 nM
  TGI: 2670 nM
[54]
  GI50: 1400 nM
  TGI: 3.01 µM
[55]
  GI50: 1730 nM
  TGI: 3.57 µM
[56]
  GI50: 2940 nM
  TGI: > 100 µM
